The values below come from PubChem BioAssay (NCI).

Structures are written as SMILES.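 Where inhibition never reached the appropriate level, the endpoint shown equals the highest concentration tested. Otherwise, values were interpolated linearly from a five-concentration, 48-hour dose response in 96-well plates. The concentration for 50% growth inhibition is given as GI50. TGI marks complete inhibition of growth.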

Assay in all cases: NCI tumour cell line growth inhibition, 48 h
In assay [1] the test system is MALME-3M melanoma.
Assay [2] deals with HCC-2998 colon.
In assay [3] the test system is MCF7 breast.
Assay [4] has as its system HOP-62 NSCLC.
In assay [5] the test system is OVCAR-3 ovarian.
In assay [6] the test system is UACC-257 melanoma.
The subject of assay [7] is MOLT-4 leukemia.
For assay [8], the system named is PC-3 prostate.
The test system of assay [9] is BT-549 breast.
For assay [10], the system named is HOP-92 NSCLC.

For the compound `Cc1nc(N)sc1C(=O)Nc1cc(C(=O)NCCCN(C)C)n(C)c1`, the GI50 in assay [1], in assay [2], in [3], in assay [4], in assay [5] and in assay [6] was over 100 µM throughout. Also, the GI50 is over 100 µM in [7], over 100 µM in assay [8], 76.7 µM in [9] and over 100 µM in [10]. In addition, the TGI in assay [1], in [2], in [3], in assay [4], in assay [5] and in assay [6] was over 100 µM each time. Further, the TGI in [7], in assay [8], in assay [9] and in [10] was over 100 µM throughout.
`COc1ccc2c(c1)[n+](=O)c(C(=O)/C=C/c1cc(OC)c(OC)c(OC)c1)c(C)n2[O-]`: the GI50 was 19.1 µM in assay [1]; 42.9 µM in assay [2]; 18 µM in assay [3]; 18.7 µM in [4]; 27.3 µM in [5]; 34.1 µM in assay [6]. Moreover, the GI50 in [7] is over 100 µM; in [8] it was 27.3 µM; in assay [9], 12.6 µM; in [10] it was 12.3 µM. For the same compound, the TGI in assay [1] was 58.7 µM; in assay [2], over 100 µM; in [3] it was 88.4 µM; in assay [4], 37.2 µM; in assay [5], over 100 µM; in [6], over 100 µM. In addition, the TGI is over 100 µM in assay [7], over 100 µM in assay [8], 28.9 µM in assay [9] and 30.8 µM in [10].
Turning to `COc1ccc(-c2csc(-c3cc(Cl)cc(Cl)c3Cl)n2)cc1`, the GI50 was 81.1 µM in [1]; 44.6 µM in assay [2]; 5.91 µM in assay [3]; over 100 µM in [4]; 86.8 µM in assay [5]; 62.7 µM in [6]. The GI50 was 57 µM in assay [7], 52.2 µM in [8], 92.2 µM in [9] and 27.6 µM in assay [10]. The TGI in assay [1], in assay [2], in [3], in assay [4], in assay [5] and in [6] was over 100 µM each time. In addition, the TGI in [7], in assay [8], in assay [9] and in assay [10] was over 100 µM throughout.
As to `Nc1nnc(Cn2c(-c3ccccc3)nc3ccc(Br)cc3c2=O)s1`, the GI50 is 42.6 µM in [2]; over 100 µM in assay [3]; 36.8 µM in assay [4]; 40 µM in assay [5]; 17.7 µM in assay [7]; 38.2 µM in assay [8]. Moreover, the GI50 is 58.3 µM in [9] and 10.8 µM in assay [10]. The TGI in assay [2] is over 100 µM; in assay [3] it was over 100 µM; in [4], over 100 µM; in assay [5], over 100 µM; in assay [7], 48.8 µM; in assay [8] it was over 100 µM. Besides, the TGI in [9] and in [10] was over 100 µM throughout.
For the compound `CCCCCCCC(=O)SCC/C=C/[C@@H]1CC(=O)NCc2nc(co2)C2=N[C@@](C)(CS2)C(=O)N[C@@H](C(C)C)C(=O)O1`, the GI50 in assay [1] is 0.0112 µM; in assay [2], 0.0196 µM; in [3], 0.0311 µM; in [4], 0.0169 µM; in [5] it was 0.0241 µM; in assay [7], 0.0241 µM. Also, the GI50 in [8] was 0.0142 µM; in [9], 0.127 µM; in assay [10], 0.0147 µM. Further, the TGI in assay [1] is over 50 µM; in assay [2], 0.216 µM; in assay [3], over 50 µM; in assay [5], 0.156 µM; in assay [7], 25.7 µM; in assay [8], over 50 µM. Also, the TGI was over 50 µM in assay [9] and 0.111 µM in [10].
As for `COc1ccc(-c2ccc(/C=N/n3c(C)nn(CN4CCN(C)CC4)c3=S)o2)c([N+](=O)[O-])c1`, the GI50 was 44.6 µM in assay [1]; 34.7 µM in assay [2]; 30.4 µM in [3]; 32.9 µM in assay [4]; 16.2 µM in [5]; 20.5 µM in assay [7]. In addition, the GI50 in assay [8] was 24.9 µM; in assay [9], over 100 µM. Also, the TGI in assay [1] is over 100 µM; in [2] it was over 100 µM; in assay [3] it was over 100 µM; in [4], over 100 µM; in assay [5], 38.1 µM; in assay [7], 61.3 µM. Besides, the TGI in assay [8] was 92 µM; in assay [9], over 100 µM.
Turning to `CNC1C(O)C(OC2C(N)CC(N)C(OC3OC(C(C)O)C(O)C(O)C3N)C2O)OCC1(C)O` (centres undefined), the TGI in assay [2], in assay [3], in [4], in assay [5], in assay [7] and in assay [8] was over 100 µM in each case. Moreover, in assay [9], the TGI is over 100 µM.
For `CCOC(=O)Nc1ccc(-c2nc(-c3cccc(OC)c3)c(-c3ccnc(Br)c3)[nH]2)cc1`, the GI50 in [1] was 1.98 µM; in [2], 2.25 µM; in assay [3], 2.13 µM; in assay [5] it was 2.82 µM; in assay [6] it was 2.68 µM; in [7], 2.21 µM. Further, the figures for the GI50 in assay [8], in assay [9] and in assay [10] were 2.52 µM, 2.19 µM and 2.36 µM, respectively. Further, the TGI in assay [1] is 5.73 µM; in assay [2], 6.23 µM; in [3], 7.18 µM; in [5], 8.44 µM; in assay [6], 7.9 µM; in assay [7] it was over 100 µM. Besides, the TGI in [8] stood at 8.9 µM; in assay [9] it was 8.11 µM; in [10], 7.69 µM.
